Assays:
[1] = tested on: 48 members of the human BRD family; assay: Thermal shift (ΔTm) selectivity screening; format: binding; conditions: profiled against 48 BRDs; compounds at 10 μM
Protocol: Thermal melting experiments were carried out using an Mx3005P Real-Time PCR machine (Stratagene). Proteins were buffered in 10 mM Hepes (pH 7.5), 500 mM NaCl, and assayed in a 96-well plate at a final concentration of 2 μM in 20-μl volume. Compounds were added at a final concentration of 10 μM. SYPRO Orange (Molecular Probes) was added as a fluorescence probe at a dilution of 1:1000. Excitation and emission filters for the SYPRO Orange dye were set to 465 and 590 nm, respectively. The temperature was raised with a step of 3°C/min from 25° to 96°C, and fluorescence readings were taken at each interval.

[2] = molecular target: T1, fifth bromodomain of PB1 [PB1(5)] (Homo sapiens, UniProt Q86U86); assay: Isothermal titration calorimetry (ITC) of SA; format: binding; conditions: 15°C, read-out: KD (dissociation constant)
T1 construct: isothermal titration calorimetry (ITC) with the fifth bromodomain of PB1 [PB1(5)]; made in house
Protocol: Experiments were carried out on a VP-ITC microcalorimeter (MicroCal). All experiments were performed at 15°C in 50 mM Hepes (pH 7.5), 150 mM NaCl. The titrations were conducted using an initial injection of 2 μl followed by 34 identical injections of 8 μl. The dilution heats were measured on separate experiments and were subtracted from the titration data. Thermodynamic parameters were calculated using ΔG = ΔH − TΔS = −RTlnKB, where ΔG, ΔH, and ΔS are the changes in free energy, enthalpy, and entropy of binding, respectively. In all cases, a single binding site model was used.

[3] = tested on: embryonic stem cells (CRG8 ESCs); assay: ESC stemness and differentiation (microscopy, qRT-PCR); format: cell-based
Description: CRG8 ESCs were maintained in serum-containing media supplemented with LIF (1000 U/ml; ESGRO, ESG1106) on feeder-free gelatin-coated wells. ESC culture media contained Dulbecco’s modified Eagle’s medium/knockout (Invitrogen), 15% ES-qualified fetal bovine serum (Invitrogen), 1% penicillin-streptomycin (Lonza, DE17-602E), 1% L-glutamine (Lonza, BE17-605E), 1% sodium pyruvate (Invitrogen, 11360), 1% β-mercaptoethanol, and 1% nonessential amino acids (Invitrogen, 11140). Differentiation of ESCs was induced in the presence of retinoic acid (Sigma, R2625) by withdrawal of LIF supplementation.
qRT-PCR ESC samples were collected by culturing ESC in stemness conditions in the presence of 1 μM PF1-3 or control compound for 1 or 8 days. ESC-differentiated samples were collected by treating the cells with PF1-3 or control compound 24 hours before differentiation induction. RNA was isolated using RNeasy Mini Kit (Qiagen, 74106) following the manufacturer’s instructions. At least two samples were collected for each group, and each qRT-PCR was run in triplicates. The qRT-PCR data were normalized against the housekeeping genes Gapdh, Ppia, and Hprt and expressed against control compound–treated ESC in stemness conditions. A list of primers is compiled in tables S5 and S6.

[4] = tested on: 102 cellular receptors as well as 30 enzyme assays; assay: Commercial CEREP screening panel
[5] = tested on: supercoiled pBR322 DNA; assay: DNA unwinding assay; conditions: 1, 5, or 10 μM
Protocol: DNA incubated with DMSO (Sigma-Aldrich; D8418) in the presence or absence of the enzyme was run as control. After extraction by butanol (Sigma-Aldrich; 281549) and chloroform/isoamyl alcohol 24:1 (Sigma-Aldrich; C0549), the DNA was run in a 1% (w/v) agarose gel (Web Scientific; AGR-500) with a 1-kb DNA ladder (Life Technologies; 10787) for 4 hours at 80 V. The gel was then stained with SYBR Safe for 30 min before ultraviolet visualization (UVP; BioDoc-It Imaging System).

[6] = molecular target: T2, full-length GFP-tagged BRM in U2OS cells (Homo sapiens, UniProt P51531); assay: Fluorescence recovery after photobleaching (FRAP); format: cell-based
T2 construct: constructs encoding GFP fused to the N terminus of full-length BRM; expressed in transfected cells; host or cells: U2OS
Protocol: FRAP studies were performed using a protocol modified from previous studies ([24]). In brief, U2OS cells were transfected (FuGENE HD, Roche) with mammalian overexpression constructs encoding GFP fused to the N terminus of full-length BRM. The FRAP and imaging system consisted of a Zeiss LSM 710 laser scanning and control system coupled to an inverted Zeiss Axio Observer.Z1 microscope equipped with a high numerical aperture (1.3) 40× oil immersion objective. Samples were placed in an incubator chamber capable of maintaining temperature and humidity. […] Once an initial scan had been taken, a region of interest corresponding to about 50% of the entire GFP-positive nucleus was empirically selected for bleaching. A time-lapse series was then taken to record GFP recovery using 1% of the power used for bleaching. The image data sets and fluorescence recovery data were exported from ZEN 2009, the microscope control software, into Microsoft Excel to determine the average half-time for full recovery for 10 to 20 cells per treatment point.

[7] = tested on: trophoblast stem cells (TSCs); assay: TSC differentiation gene expression (RNA-seq, qRT-PCR); format: cell-based, mouse
Protocol: Derivation and culture of TSCs were performed as previously described ([34]). Shortly, TSCs were cultured in the absence of feeders in medium supplemented with FGF4 (30 ng/ml; R&D Systems, 235-F4-025/CF), heparin (1.2 μg/ml; Sigma, H3149), and 70% conditional medium (harvested from mitomycin-treated primary mouse embryonic fibroblasts). TSC medium contained RPMI 1640 (BD Biosciences, 354230), 20% ES-qualified fetal bovine serum (Invitrogen), 1% penicillin-streptomycin (Lonza, DE17-602E), 1% L-glutamine (Lonza, BE17-605E), 1% sodium pyruvate (Invitrogen, 11360), and 0.1 mM β-mercaptoethanol. To induce differentiation, TSCs were cultured on feeder-free conditions in TSC medium lacking FGF4 and heparin supplementation.
RNA was isolated as for the ESC samples.
RNA-Seq Library synthesis and analysis were performed at the DKFZ sequencing genomics core facility (Heidelberg, Germany). Mapping and bioinformatics analysis were performed using TopHat, EdgeR Gene-E, and HOMER ([35]–[37]). The raw data from the RNA set results are available through Gene Expression Omnibus (GEO) (accession no. GSE65358). Each replicate represents at least 12 million reads, a density sufficient for qualitative analysis of gene expression. The reads were aligned to the mm10 mouse genome, allowing a mismatch of 2%. We used WebGestalt to find affected pathways ([38]).

[8] = tested on: NCI-60 panel of tumor cell lines; assay: NCI-60 cell proliferation and survival; format: cell-based; conditions: 10 μM inhibitor
[9] = Stability in aqueous solution; format: physicochemical; conditions: 37°C, read-out: Half-life in aqueous solutions
[10] = tested on: H3K27me3 at Brg1 and Stat3 target genes in ESCs; assay: ChIP of H3K27me3 in ESCs; format: cell-based; conditions: promoters and TSSs, vs PFI-3oMet
Protocol: ChIP experiments were carried out with Covaris truChIP chromatin shearing reagent according to the manufacturer’s instructions with certain modifications. ESCs were fixed on-plate with 1% formaldehyde in phosphate-buffered saline for 5 min. Cells (10 million) were resuspended in 1 ml of shearing buffer and sonicated (Covaris S220) for 200 cycles per burst, 140 W peak power, 5% duty factor for 15 min in 1-ml Covaris tubes. The supernatant was then diluted to a protein concentration of 1.7 mg ml^−1, and 350 to 500 μg of protein were used for each immunoprecipitation reaction with anti-H3K27me3 (pab-069-050, Diagenode). The targeted gene fragments were amplified with primers used by Ho et al. ([27]).

[11] = tested on: BAF BRDs; assay: Initial library screening for interaction with BAF BRDs; format: binding
[12] = 4 days of differentiation, vs control compound

T2 sequence (P51531 whole entry, the tested form may be a part): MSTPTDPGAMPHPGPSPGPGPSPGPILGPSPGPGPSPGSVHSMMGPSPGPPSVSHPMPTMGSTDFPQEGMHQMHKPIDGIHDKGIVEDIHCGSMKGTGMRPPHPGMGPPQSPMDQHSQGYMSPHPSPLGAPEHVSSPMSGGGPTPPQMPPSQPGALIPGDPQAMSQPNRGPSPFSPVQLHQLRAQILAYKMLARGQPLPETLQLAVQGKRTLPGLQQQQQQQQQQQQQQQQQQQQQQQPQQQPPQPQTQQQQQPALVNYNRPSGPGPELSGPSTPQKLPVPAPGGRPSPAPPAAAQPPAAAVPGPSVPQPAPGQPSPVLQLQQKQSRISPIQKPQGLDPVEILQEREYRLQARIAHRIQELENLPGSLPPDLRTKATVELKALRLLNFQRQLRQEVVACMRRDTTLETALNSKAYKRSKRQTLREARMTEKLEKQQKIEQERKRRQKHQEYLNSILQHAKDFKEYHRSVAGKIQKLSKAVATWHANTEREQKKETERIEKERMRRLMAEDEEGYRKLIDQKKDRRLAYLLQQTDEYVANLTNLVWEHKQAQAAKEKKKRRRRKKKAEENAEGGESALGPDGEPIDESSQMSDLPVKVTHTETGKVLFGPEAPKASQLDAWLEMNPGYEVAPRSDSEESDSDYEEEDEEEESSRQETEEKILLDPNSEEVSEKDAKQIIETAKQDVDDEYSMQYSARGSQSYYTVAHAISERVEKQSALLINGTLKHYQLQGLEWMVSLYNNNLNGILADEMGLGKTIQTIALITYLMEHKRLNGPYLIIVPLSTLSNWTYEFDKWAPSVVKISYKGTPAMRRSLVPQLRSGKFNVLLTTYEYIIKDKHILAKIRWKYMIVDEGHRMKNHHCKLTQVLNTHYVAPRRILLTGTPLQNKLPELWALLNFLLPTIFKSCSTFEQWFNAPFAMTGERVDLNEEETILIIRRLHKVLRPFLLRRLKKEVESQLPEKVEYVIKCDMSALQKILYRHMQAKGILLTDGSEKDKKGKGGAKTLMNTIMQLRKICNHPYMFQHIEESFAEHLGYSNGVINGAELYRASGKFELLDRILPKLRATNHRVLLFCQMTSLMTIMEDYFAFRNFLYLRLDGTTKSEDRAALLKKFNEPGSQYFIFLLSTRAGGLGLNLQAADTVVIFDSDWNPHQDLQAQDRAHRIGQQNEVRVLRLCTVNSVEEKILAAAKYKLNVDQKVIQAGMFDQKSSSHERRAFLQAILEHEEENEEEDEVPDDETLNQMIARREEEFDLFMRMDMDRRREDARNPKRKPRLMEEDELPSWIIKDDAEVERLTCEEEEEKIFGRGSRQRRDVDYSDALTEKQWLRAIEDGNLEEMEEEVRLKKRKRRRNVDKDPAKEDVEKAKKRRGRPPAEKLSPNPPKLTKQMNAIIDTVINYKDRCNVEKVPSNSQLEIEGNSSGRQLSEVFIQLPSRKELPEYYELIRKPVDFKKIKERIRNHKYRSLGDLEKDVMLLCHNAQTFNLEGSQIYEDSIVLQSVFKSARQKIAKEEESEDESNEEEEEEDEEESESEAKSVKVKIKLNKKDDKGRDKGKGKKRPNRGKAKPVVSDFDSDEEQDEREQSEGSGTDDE
T1 sequence (Q86U86 653-763 limits assumed): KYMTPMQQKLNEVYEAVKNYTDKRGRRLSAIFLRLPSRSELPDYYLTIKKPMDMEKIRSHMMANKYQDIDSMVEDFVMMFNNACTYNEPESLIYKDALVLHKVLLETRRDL

Compound: O=C(O)c1ccccc1O [SA, salicylic acid]
- Selectivity in temperature shift (ΔTm) assay [1]: good selectivity for BRDs present in BRG1/BRM and PB1
- Kd [2]: 250 µM

Compound: O=C(/C=C/N1C[C@H]2C[C@@H]1CN2c1ccccn1)c1ccccc1O [PFI-3, (E)-1-(2-hydroxyphenyl)-3-((1R,4R)-5-(pyridin-2-yl)-2,5-diazabicyclo[2.2.1]heptan-2-yl)prop-2-en-1-one]
- Transcription of stemness genes ([3]; 1 μM, 1 and 8 days, qRT-PCR): initial up- and subsequent down-regulation of stemness genes
- Morphological differentiation of ESCs ([3]; 1 μM, 8 days, stemness-maintaining conditions (LIF), vs PFI-3oMet): led to visible differentiation
- Gata4 expression [3, 12]: not significantly altered
- Nes expression [3, 12]: increased
- T (brachyury homolog) transcription [3, 12]: at the expense of the brachyury homolog T transcription
- Interactions in CEREP panel [4]: only interactions against four GPCRs (G protein–coupled receptor) with micromolar affinity
- DNA intercalation [5]: did not intercalate into DNA
- Half-recovery time of wild-type GFP-BRM (FRAP) ([6]; 2.5 μM SAHA, compound exposure 1 hour): significantly accelerated the half-recovery time
- Ability to displace BRM from chromatin after 24 hours ([6]; exposure 24 hours, 37°C): did not show any loss
- Transcription of TSC differentiation markers (Prl3d1, Tpbpa) ([7]; 2 μM, differentiation (D4), qRT-PCR): marked increase
- Levels of Eomes, Brg1, Brm, and Pbrm1/Baf180 ([7]; qRT-PCR): not affected
- Prl7d1 and Tpbpa transcription after washout ([7]; washout of the inhibitor during differentiation): could still be observed after washout of the inhibitor during differentiation of TSCs albeit to a lesser extent
- Toxicity (cell proliferation and survival) [8]: did not result in significant toxicity for any of the cell lines tested
- half-life [9]: > 168 h
- H3K27me3 at Brg1 and Stat3 binding sites [10]: increase of H3K27me3

Compound: CCOC(=O)Nc1cc(-c2ccc(C)c(NS(C)(=O)=O)c2)nn2c(C)nnc12 [bromosporine]
- Binding to BAF BRDs [11]: did not exhibit any binding

Source: publication PMC4681344, “Selective targeting of the BRG/PB1 bromodomains impairs embryonic and trophoblast stem cell maintenance” (Science Advances, 2015)
